# From patent publication US20250353852A1, “COMPOUNDS AND COMPOSITIONS THAT INHIBIT PIKFYVE” (Kineta, Inc., priority 2021, published 2025)
# Target: full-length human PIKFYVE (Homo sapiens (Human), UniProt Q9Y2I7, L932S/Q1183K/Q995L/S1033A/S696N/T998S)
# Assay: PIKfyve biochemical assay (ADP-Glo Kinase assay, Carna Biosciences)
# Conditions: class symbols
# Description: PIKfyve Biochemical Assay. The biochemical […] inhibition assays were run by Carna Biosciences according to proprietary methodology based on the Promega […] Kinase assay. […] NP_055855.2] was expressed as N-terminal GST-fusion protein (265 kDa) using baculovirus expression system. GST-PIKFYVE was purified by using glutathione sepharose chromatography and used in an ADP-GloTM Kinase assay (Promega). Reactions were set up by adding the test compound solution, substrate solution, ATP solution and kinase solution, each at 4× final concentrations. Reactions were prepared with assay buffer (50 mM MOPS, 1 mM DTT, pH7.2), mixed, and incubated in black 384 well polystyrene plates for 1 hour at room temperature. ADP-Glo^TM reagent was then added for 40 minutes, followed by kinase detection reagent for an additional 40 minutes. The kinase activity was evaluated by detecting relative light units on a luminescence plate reader. […] IC50 values were calculated from concentration vs % inhibition curves by fitting to a four-parameter logistic curve. […] The biochemical […] inhibition assays were run by Carna Biosciences according to proprietary methodology based on the Promega ADP-GloTM Kinase assay. […] GST-PIKFYVE was purified by using glutathione sepharose chromatography and used in an ADP-GIoTM Kinase assay (Promega). Reactions were set up by adding the test compound solution, substrate solution, ATP solution and kinase solution, each at 4× final concentrations. Reactions were prepared with assay buffer (50 mM MOPS, 1 mM DTT, pH7.2), mixed, and incubated in black 384 well polystyrene plates for 1 hour at room temperature. ADP-GIoTM reagent was then added for 40 minutes, followed by kinase detection reagent for an additional 40 minutes. The kinase activity was evaluated by detecting relative light units on a luminescence plate reader. […] IC50 values were calculated from concentration vs % inhibition curves by fitting to a four-parameter logistic curve. […] The same compounds were also tested in both FAB1 and PIKFYVE TDP-43 yeast models.
# Chain of full-length human PIKFYVE (Q9Y2I7 whole entry S696N/L932S/Q995L/T998S/S1033A/Q1183K): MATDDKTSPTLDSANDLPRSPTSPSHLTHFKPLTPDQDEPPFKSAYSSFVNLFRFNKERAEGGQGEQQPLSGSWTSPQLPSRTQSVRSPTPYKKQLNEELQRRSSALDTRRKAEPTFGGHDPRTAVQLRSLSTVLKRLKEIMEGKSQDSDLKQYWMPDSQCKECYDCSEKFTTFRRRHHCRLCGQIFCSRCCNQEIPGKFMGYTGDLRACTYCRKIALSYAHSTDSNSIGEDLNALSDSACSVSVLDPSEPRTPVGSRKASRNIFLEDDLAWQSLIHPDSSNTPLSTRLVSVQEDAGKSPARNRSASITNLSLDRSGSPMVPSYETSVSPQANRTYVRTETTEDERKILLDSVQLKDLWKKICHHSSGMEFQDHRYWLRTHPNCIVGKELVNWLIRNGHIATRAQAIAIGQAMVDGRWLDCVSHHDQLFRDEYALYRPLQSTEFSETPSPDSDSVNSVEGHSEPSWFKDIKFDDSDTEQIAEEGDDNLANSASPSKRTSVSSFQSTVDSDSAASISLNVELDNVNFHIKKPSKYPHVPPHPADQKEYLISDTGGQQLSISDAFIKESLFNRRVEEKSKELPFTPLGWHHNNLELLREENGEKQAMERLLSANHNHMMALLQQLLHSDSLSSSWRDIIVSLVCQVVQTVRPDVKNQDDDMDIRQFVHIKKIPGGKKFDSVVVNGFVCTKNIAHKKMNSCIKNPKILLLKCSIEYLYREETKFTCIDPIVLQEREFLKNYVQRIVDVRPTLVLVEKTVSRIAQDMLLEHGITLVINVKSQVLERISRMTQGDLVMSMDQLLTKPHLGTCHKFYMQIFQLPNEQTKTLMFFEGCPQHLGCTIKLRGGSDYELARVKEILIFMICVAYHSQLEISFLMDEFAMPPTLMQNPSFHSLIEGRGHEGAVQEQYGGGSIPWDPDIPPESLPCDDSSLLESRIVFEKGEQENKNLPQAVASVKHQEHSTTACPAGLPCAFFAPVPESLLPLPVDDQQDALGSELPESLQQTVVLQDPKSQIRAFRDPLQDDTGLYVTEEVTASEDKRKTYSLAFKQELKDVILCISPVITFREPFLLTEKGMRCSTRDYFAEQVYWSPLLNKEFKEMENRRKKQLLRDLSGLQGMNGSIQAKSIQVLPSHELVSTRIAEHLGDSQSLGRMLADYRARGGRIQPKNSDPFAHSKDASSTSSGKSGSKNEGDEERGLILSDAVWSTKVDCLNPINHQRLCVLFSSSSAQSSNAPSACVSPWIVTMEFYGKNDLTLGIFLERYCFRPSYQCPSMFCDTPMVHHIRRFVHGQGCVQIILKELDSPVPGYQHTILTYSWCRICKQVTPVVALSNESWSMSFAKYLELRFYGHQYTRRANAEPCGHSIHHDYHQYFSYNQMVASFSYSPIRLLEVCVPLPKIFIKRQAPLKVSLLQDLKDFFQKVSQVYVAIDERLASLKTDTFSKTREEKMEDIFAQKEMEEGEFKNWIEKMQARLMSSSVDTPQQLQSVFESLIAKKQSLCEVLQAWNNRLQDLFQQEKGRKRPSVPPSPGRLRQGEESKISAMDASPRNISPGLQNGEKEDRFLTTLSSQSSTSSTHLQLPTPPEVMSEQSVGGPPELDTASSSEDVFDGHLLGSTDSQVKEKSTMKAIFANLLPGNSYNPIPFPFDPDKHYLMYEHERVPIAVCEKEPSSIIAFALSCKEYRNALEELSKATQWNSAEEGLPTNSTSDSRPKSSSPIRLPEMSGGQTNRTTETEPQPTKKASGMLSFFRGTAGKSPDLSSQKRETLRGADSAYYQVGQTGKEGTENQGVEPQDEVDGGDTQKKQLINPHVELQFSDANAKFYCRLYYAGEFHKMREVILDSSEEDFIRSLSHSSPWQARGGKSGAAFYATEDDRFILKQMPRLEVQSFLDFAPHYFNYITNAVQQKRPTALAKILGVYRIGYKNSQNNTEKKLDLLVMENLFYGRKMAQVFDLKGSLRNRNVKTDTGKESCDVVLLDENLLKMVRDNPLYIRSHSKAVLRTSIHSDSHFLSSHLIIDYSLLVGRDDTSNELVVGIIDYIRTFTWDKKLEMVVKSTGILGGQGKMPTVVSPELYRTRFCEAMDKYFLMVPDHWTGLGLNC
row,Compound,IC50
1,"c1ccc(C2CCN(c3cc(N4CCOCC4)n4nc(-c5ccncc5)cc4n3)C2)cc1 (stereo not drawn) [Compound 33, 4-(5-(3-phenylpyrrolidin-1-yl)-2-(pyridin-4-yl)pyrazolo[1,5-a]pyrimidin-7-yl)morpholine]",1000 to 10000 nM
2,"CN1CCN(c2cc(N3CCOCC3)n3nc(-c4ccncc4)cc3n2)CC1c1ccccc1 (stereo not drawn) [Compound 38, 4-(5-(4-methyl-3-phenylpiperazin-1-yl)-2-(pyridin-4-yl)pyrazolo[1,5-a]pyrimidin-7-yl)morpholine]",1000 to 10000 nM
3,"OCC1(c2ccn(-c3cc(N4CCOCC4)n4nc(-c5ccncc5)cc4n3)n2)CC1 [Compound 82, (1-(1-(7-morpholino-2-(pyridin-4-yl)pyrazolo[1,5-a]pyrimidin-5-yl)-1H-pyrazol-3-yl)cyclopropyl)methanol]",100 to 1000 nM
4,"C=Cc1cc2nc(-n3ccc(-c4ccccc4)n3)cc(N3CCOCC3)n2n1 [Compound 143, 4-(5-(3-phenyl-1H-pyrazol-1-yl)-2-vinylpyrazolo[1,5-a]pyrimidin-7-yl)morpholine]",100 to 1000 nM
5,c1ccc(-c2cc(N3CCOCC3)n3nc(-c4ccncc4)cc3n2)nc1 [Compound 132],100 to 1000 nM
6,"COc1cccc(-c2ccn(-c3cc(N4CCOCC4)n4nc(C5CCCO5)cc4n3)n2)c1 (stereo not drawn) [Compound 93, 4-(5-(3-(3-methoxyphenyl)-1H-pyrazol-1-yl)-2-(tetrahydrofuran-2-yl)pyrazolo[1,5-a]pyrimidin-7-yl)morpholine]",10 to 100 nM
7,"c1ccc(Oc2cccnc2-c2cc(N3CCOCC3)n3nc(-c4ccncc4)cc3n2)cc1 [Compound 41, 4-(5-(3-phenoxypyridin-2-yl)-2-(pyridin-4-yl)pyrazolo[1,5-a]pyrimidin-7-yl)morpholine]",100 to 1000 nM
8,"c1ccc(-n2ccc(-c3cc(N4CCOCC4)n4nc(-c5ccncc5)cc4n3)n2)cc1 [Compound 14, 4-(5-(1-phenyl-1H-pyrazol-3-yl)-2-(pyridin-4-yl)pyrazolo[1,5-a]pyrimidin-7-yl)morpholine]",10 to 100 nM
9,"c1cc(-c2cc3nc(-n4cc5c(n4)CCOC5)cc(N4CCOCC4)n3n2)ccn1 [Compound 89, 2-(7-morpholino-2-(pyridin-4-yl)pyrazolo[1,5-a]pyrimidin-5-yl)-2,4,6,7-tetrahydropyrano[4,3-c]pyrazole]",100 to 1000 nM
10,"c1ccc(C2CN(c3cc(N4CCOCC4)n4nc(-c5ccncc5)cc4n3)C2)cc1 [Compound 32, 4-(5-(3-phenylazetidin-1-yl)-2-(pyridin-4-yl)pyrazolo[1,5-a]pyrimidin-7-yl)morpholine]",1000 to 10000 nM
11,"c1cn(-c2cc(N3CCOCC3)n3nc(C4CCCO4)cc3n2)nc1C1CCOCC1 (stereo not drawn) [Compound 95, 4-(5-(3-(tetrahydro-2H-pyran-4-yl)-1H-pyrazol-1-yl)-2-(tetrahydrofuran-2-yl)pyrazolo[1,5-a]pyrimidin-7-yl)morpholine]",> 10000 nM
12,"c1ccc(CN2CCCC2c2cc(N3CCOCC3)n3nc(-c4ccncc4)cc3n2)cc1 (stereo not drawn) [Compound 124, 4-(5-(1-benzylpyrrolidin-2-yl)-2-(pyridin-4-yl)pyrazolo[1,5-a]pyrimidin-7-yl)morpholine]",1000 to 10000 nM
13,"c1ccc(-n2ccc(-c3cc(N4CCOCC4)n4nc(C5CCCO5)cc4n3)n2)cc1 (stereo not drawn) [Compound 96, 4-(5-(1-phenyl-1H-pyrazol-3-yl)-2-(tetrahydrofuran-2-yl)pyrazolo[1,5-a]pyrimidin-7-yl)morpholine]",100 to 1000 nM
14,"c1cc(-c2cc3nc(-n4ccc(-c5ccnnc5)n4)cc(N4CCOCC4)n3n2)ccn1 [Compound 69, 4-(5-(3-(pyridazin-4-yl)-1H-pyrazol-1-yl)-2-(pyridin-4-yl)pyrazolo[1,5-a]pyrimidin-7-yl)morpholine]",100 to 1000 nM
15,"c1cc(-c2cc3nc(-n4ccc(-c5cncnc5)n4)cc(N4CCOCC4)n3n2)ccn1 [Compound 72, 4-(2-(pyridin-4-yl)-5-(3-(pyrimidin-5-yl)-1H-pyrazol-1-yl)pyrazolo[1,5-a]pyrimidin-7-yl)morpholine]",100 to 1000 nM
16,"CN1CCC(c2ccn(-c3cc(N4CCOCC4)n4nc(-c5ccncc5)cc4n3)n2)CC1 [Compound 63, 4-(5-(3-(1-methylpiperidin-4-yl)-1H-pyrazol-1-yl)-2-(pyridin-4-yl)pyrazolo[1,5-a]pyrimidin-7-yl)morpholine]",100 to 1000 nM
17,"c1ccc(CC2CNCCN2c2cc(N3CCOCC3)n3nc(-c4ccncc4)cc3n2)cc1 (stereo not drawn) [Compound 117, 4-(5-(2-benzylpiperazin-1-yl)-2-(pyridin-4-yl)pyrazolo[1,5-a]pyrimidin-7-yl)morpholine]",1000 to 10000 nM

row,Compound,IC50
1,"O=c1c(-c2ccccc2)c(-c2ccccc2)cnn1-c1cc(N2CCOCC2)n2nc(-c3ccncc3)cc2n1 [Compound 6, 2-(7-morpholino-2-(pyridin-4-yl)pyrazolo[1,5-a]pyrimidin-5-yl)-4,5-diphenylpyridazin-3(2H)-one]",1000 to 10000 nM
2,"c1ccc(CC2COCCN2c2cc(N3CCOCC3)n3nc(-c4ccncc4)cc3n2)cc1 (stereo not drawn) [Compound 36, 3-benzyl-4-(7-morpholino-2-(pyridin-4-yl)pyrazolo[1,5-a]pyrimidin-5-yl)morpholine]",1000 to 10000 nM
3,"O=C(/C=C/c1cc(N2CCOCC2)n2nc(-c3ccncc3)cc2n1)c1ccccc1 [Compound 109, (E)-3-(7-morpholino-2-(pyridin-4-yl)pyrazolo[1,5-a]pyrimidin-5-yl)-1-phenylprop-2-en-1-one]",1000 to 10000 nM
4,"c1cc(-c2cc3nc(-n4cnc(C5CCCNC5)c4)cc(N4CCOCC4)n3n2)ccn1 (stereo not drawn) [Compound 16, 4-(5-(4-(piperidin-3-yl)-1H-imidazol-1-yl)-2-(pyridin-4-yl)pyrazolo[1,5-a]pyrimidin-7-yl)morpholine]",1000 to 10000 nM
5,"c1ccc(-c2nnc(-c3cc(N4CCOCC4)n4nc(-c5ccncc5)cc4n3)o2)cc1 [Compound 130, 4-(5-(5-phenyl-1,3,4-oxadiazol-2-yl)-2-(pyridin-4-yl)pyrazolo[1,5-a]pyrimidin-7-yl)morpholine]",1000 to 10000 nM
6,"CN1CCCC(c2ccn(-c3cc(N4CCOCC4)n4nc(-c5ccncc5)cc4n3)n2)C1 (stereo not drawn) [Compound 68, 4-(5-(3-(1-methylpiperidin-3-yl)-1H-pyrazol-1-yl)-2-(pyridin-4-yl)pyrazolo[1,5-a]pyrimidin-7-yl)morpholine]",100 to 1000 nM
7,"CN1CCN(c2cc(N3CCOCC3)n3nc(-c4ccncc4)cc3n2)C(=O)C1c1ccccc1 (stereo not drawn) [Compound 27, 4-methyl-1-(7-morpholino-2-(pyridin-4-yl)pyrazolo[1,5-a]pyrimidin-5-yI)-3-phenylpiperazin-2-one]",1000 to 10000 nM
8,"c1ccc(-c2ccn(-c3cc(N4CCOCC4)n4nc(-c5ccncc5)cc4n3)n2)nc1 [Compound 70, 4-(5-(3-(pyridin-2-yl)-1H-pyrazol-1-yl)-2-(pyridin-4-yl)pyrazolo[1,5-a]pyrimidin-7-yl)morpholine]",100 to 1000 nM
9,"Fc1cncc(-c2ccn(-c3cc(N4CCOCC4)n4nc(-c5ccncc5)cc4n3)n2)c1 [Compound 60, 4-(5-(3-(5-fluoropyridin-3-yl)-1H-pyrazol-1-yl)-2-(pyridin-4-yl)pyrazolo[1,5-a]pyrimidin-7-yl)morpholine]",100 to 1000 nM
10,"c1c(-n2cc3c(n2)CCOC3)nc2cc(C3CCCO3)nn2c1N1CCOCC1 (stereo not drawn) [Compound 99, 2-(7-morpholino-2-(tetrahydrofuran-2-yl)pyrazolo[1,5-a]pyrimidin-5-yl)-2,4,6,7-tetrahydropyrano[4,3-c]pyrazole]",> 10000 nM
11,"Cc1cccc(C(=O)COc2cc(N3CCOCC3)n3nc(-c4ccncc4)cc3n2)c1 [Compound 125, 2-((7-morpholino-2-(pyridin-4-yl)pyrazolo[1,5-a]pyrimidin-5-yl)oxy)-1-(m-tolyl)ethan-1-one]",1000 to 10000 nM
12,"O=C1CCC(c2ccccc2)CN1c1cc(N2CCOCC2)n2nc(-c3ccncc3)cc2n1 (stereo not drawn) [Compound 26, 1-(7-morpholino-2-(pyridin-4-yl)pyrazolo[1,5-a]pyrimidin-5-yl)-5-phenylpiperidin-2-one]",1000 to 10000 nM
13,"CN1C(=O)CN(c2cc(N3CCOCC3)n3nc(-c4ccncc4)cc3n2)CC1c1ccccc1 (stereo not drawn) [Compound 37, 1-methyl-4-(7-morpholino-2-(pyridin-4-yl)pyrazolo[1,5-a]pyrimidin-5-yl)-6-phenylpiperazin-2-one]",1000 to 10000 nM
14,"Oc1cc(C2CCOCC2)nn1-c1cc(N2CCOCC2)n2nc(-c3ccncc3)cc2n1 [Compound 50, 1-(7-morpholino-2-(pyridin-4-yl)pyrazolo[1,5-a]pyrimidin-5-yl)-3-(tetrahydro-2H-pyran-4-yl)-1H-pyrazol-5-ol]",100 to 1000 nM
15,"O=C(/C=C/c1ccccc1)c1cc(N2CCOCC2)n2nc(-c3ccncc3)cc2n1 [Compound 114, 1-(7-morpholino-2-(pyridin-4-yl)pyrazolo[1,5-a]pyrimidin-5-yl)-3-phenylprop-2-en-1-one]",1000 to 10000 nM
16,"c1cc(-c2cc3nc(-n4cc5c(n4)COCC5)cc(N4CCOCC4)n3n2)ccn1 [Compound 87, 2-(7-morpholino-2-(pyridin-4-yl)pyrazolo[1,5-a]pyrimidin-5-yl)-2,4,5,7-tetrahydropyrano[3,4-c]pyrazole]",1000 to 10000 nM
